Among the data in US10988477B2 (Merck Patent GmbH, priority 2018, dated 2021) are IC50 and Ki values, retold here.

The term IC50 denotes the concentration at which inhibition is half-maximal. A lower IC50 goes with inhibition by little substance.

Assay [1] has as its target intracellular GCN2 (phosphorylation of the GCN2 substrate eIF2α) (Homo sapiens, UniProt Q9P2K8). The experiment in a line: GCN2 cellular inhibition assay (AlphaScreen SureFire P-eIF2α Ser51, borrelidin-treated U2OS cells). The format is cell-based. The following applies: compounds of Formula IV; biomarker assay, phosphorylated eIF2α Ser51 in borrelidin-treated U2OS cells. The method in brief:
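Compound effect on GCN2 is gauged by eIF2α Ser51 phosphorylation in borrelidin-challenged U2OS cells (10 μM, 1 h). Top compound level is 40 μM final.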

The target of another assay is GCN2 kinase (Homo sapiens, UniProt Q9P2K8). Description: GCN2 enzyme inhibition assay (Transcreener ADP2 fluorescence polarization). The format is biochemical. As to conditions: 280 μM ATP; for Ki: Enzyme activity for compounds of Formula IV, Ki(app), 25° C.; for IC50: compounds of Formula IV, 4 nM GCN2 kinase. The method in brief:
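Run at 25 °C in 25 mM Tris-HCl pH 7.5, 50 mM NaCl, 10 mM MgCl2, 1 mM DTT with 4 nM GCN2, 280 μM ATP and 200 μM (RS)7 peptide; compound (0–8 μM final) preincubated 10 min, reaction 1 h. ADP read by antibody/tracer FP; IC50 and Ki(app) from tight-binding fit.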
(In general: Polarisation of emitted light reports the rotation of a fluorescent probe.)

The structures appear in SMILES notation.

Chain of intracellular GCN2 (phosphorylation of the GCN2 substrate eIF2α) (Q9P2K8 whole entry): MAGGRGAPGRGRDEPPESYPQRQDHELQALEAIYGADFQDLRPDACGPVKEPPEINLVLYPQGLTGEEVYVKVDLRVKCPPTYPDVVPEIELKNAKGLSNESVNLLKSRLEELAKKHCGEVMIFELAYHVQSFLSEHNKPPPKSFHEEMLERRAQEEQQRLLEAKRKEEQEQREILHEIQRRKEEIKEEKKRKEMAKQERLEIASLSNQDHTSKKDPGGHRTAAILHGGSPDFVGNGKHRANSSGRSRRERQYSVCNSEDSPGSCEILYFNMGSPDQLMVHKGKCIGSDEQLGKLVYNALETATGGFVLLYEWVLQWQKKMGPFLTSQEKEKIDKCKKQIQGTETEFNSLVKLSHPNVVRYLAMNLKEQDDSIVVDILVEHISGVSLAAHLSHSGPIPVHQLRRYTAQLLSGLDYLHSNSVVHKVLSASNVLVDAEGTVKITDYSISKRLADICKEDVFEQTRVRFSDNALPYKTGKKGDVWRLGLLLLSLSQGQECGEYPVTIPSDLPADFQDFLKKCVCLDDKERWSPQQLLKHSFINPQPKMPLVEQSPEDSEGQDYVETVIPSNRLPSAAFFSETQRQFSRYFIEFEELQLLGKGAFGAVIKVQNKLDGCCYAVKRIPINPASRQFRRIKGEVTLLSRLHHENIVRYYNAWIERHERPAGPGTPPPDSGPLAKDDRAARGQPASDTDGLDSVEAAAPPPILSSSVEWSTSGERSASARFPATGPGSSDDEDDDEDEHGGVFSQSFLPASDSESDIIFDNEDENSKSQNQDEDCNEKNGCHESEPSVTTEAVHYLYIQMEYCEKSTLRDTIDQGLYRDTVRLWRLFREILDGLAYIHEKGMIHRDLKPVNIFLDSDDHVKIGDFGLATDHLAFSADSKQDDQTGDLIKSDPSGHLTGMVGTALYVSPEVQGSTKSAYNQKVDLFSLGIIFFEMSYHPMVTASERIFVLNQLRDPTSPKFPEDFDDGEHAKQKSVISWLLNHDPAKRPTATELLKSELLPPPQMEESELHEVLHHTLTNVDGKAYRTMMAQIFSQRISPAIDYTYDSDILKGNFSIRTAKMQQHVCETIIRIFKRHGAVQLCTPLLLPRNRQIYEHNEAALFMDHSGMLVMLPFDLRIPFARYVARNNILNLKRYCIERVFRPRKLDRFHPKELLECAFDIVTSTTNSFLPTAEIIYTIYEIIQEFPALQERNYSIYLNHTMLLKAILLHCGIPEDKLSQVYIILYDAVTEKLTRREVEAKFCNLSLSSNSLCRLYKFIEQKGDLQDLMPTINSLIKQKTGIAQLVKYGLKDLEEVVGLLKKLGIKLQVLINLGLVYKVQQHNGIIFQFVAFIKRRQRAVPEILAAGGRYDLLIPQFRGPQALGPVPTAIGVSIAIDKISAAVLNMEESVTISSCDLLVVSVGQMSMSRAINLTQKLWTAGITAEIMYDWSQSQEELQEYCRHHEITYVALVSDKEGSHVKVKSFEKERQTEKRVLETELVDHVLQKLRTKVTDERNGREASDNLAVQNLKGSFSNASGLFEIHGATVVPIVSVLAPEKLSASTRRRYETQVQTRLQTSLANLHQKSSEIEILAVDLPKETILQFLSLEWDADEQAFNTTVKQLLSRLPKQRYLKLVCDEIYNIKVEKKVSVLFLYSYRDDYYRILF
Chain of GCN2 kinase (Q9P2K8 whole entry): as above

`Cc1cc(N2CCC(c3cn[nH]c3)C2)nc(-c2cnc3cnc(C(F)(F)F)cn23)n1` (stereo not drawn) [IV-668, 3-(4-(3-(1H-Pyrazol-4-yl)pyrrolidin-1-yl)-6-methylpyrimidin-2-yl)-6-(trifluoromethyl)imidazo[1,2-a]pyrazine] registered an IC50 in assay [1] of 0.5 to 5 µM. This molecule also returned a Ki at GCN2 kinase of 10 to 100 nM.

Turning to `FC(F)(F)c1cn2c(-c3nccc(N4CCCC(c5nccs5)C4)n3)cnc2cn1` (stereo not drawn) [IV-675, 2-(1-(2-(6-(Trifluoromethyl)imidazo[1,2-a]pyrazin-3-yl)pyrimidin-4-yl)piperidin-3-yl)thiazole], the IC50 in assay [1] was over 5 µM. Moreover, the Ki at GCN2 kinase was in the range of 10 to 100 nM.

In assay [1], `CC1NCC(C)N(c2ccnc(-c3cnc4cnc(C(F)(F)F)cn34)n2)C1c1ccc(=O)[nH]c1` (stereo not drawn) [IV-676, 5-(3,6-Dimethyl-1-(2-(6-(trifluoromethyl)imidazo[1,2-a]pyrazin-3-yl)pyrimidin-4-yl)piperazin-2-yl)pyridin-2(1H)-one] gave an IC50 of 0.5 to 5 µM. For the same molecule, on GCN2 kinase, the Ki was in the range of 100 to 1000 nM.

`CC1CN(c2ccnc(-c3cnc4cnc(C(F)(F)F)cn34)n2)C(C)C(c2ccc(=O)[nH]c2)N1` (stereo not drawn) [IV-677, 5-(3,6-Dimethyl-4-(2-(6-(trifluoromethyl)imidazo[1,2-a]pyrazin-3-yl)pyrimidin-4-yl)piperazin-2-yl)pyridin-2(1H)-one] had an IC50 in assay [1] of 0.5 to 5 µM. In addition, on GCN2 kinase, the Ki lay in the range of 10 to 100 nM.

In assay [1], `FC(F)(F)c1cn2c(-c3nccc(N4CCCC(c5cnco5)C4)n3)cnc2cn1` (stereo not drawn) [IV-678, 5-(1-(2-(6-(Trifluoromethyl)imidazo[1,2-a]pyrazin-3-yl)pyrimidin-4-yl)piperidin-3-yl)oxazole] came in with an IC50 of 0.5 to 5 µM. The same molecule had a Ki on GCN2 kinase of 10 to 100 nM.

As to `FC(F)(F)c1cn2c(-c3nccc(N4CC(c5cn[nH]c5)N5CCC[C@H]5C4)n3)cnc2cn1` (stereo partly drawn) [IV-679, 3-(4-((8aS)-4-(1H-Pyrazol-4-yl)hexahydropyrrolo[1,2-a]pyrazin-2(1H)-yl)pyrimidin-2-yl)-6-(trifluoromethyl)imidazo[1,2-a]pyrazine], the IC50 in assay [1] was in the range of 0.5 to 5 µM. Also, the Ki on GCN2 kinase was under 10 nM.

In turn, `FC(F)(F)c1cn2c(-c3nccc(N4CCC(c5cn[nH]c5)CC4)n3)cnc2cn1` [IV-680, 3-(4-(4-(1H-Pyrazol-4-yl)piperidin-1-yl)pyrimidin-2-yl)-6-(trifluoromethyl)imidazo[1,2-a]pyrazine] returned a half-inhibitory concentration (IC50) in assay [1] of 0.5 to 5 µM. Further, at GCN2 kinase, the Ki was 10 to 100 nM.

Turning to `FC(F)(F)c1cn2c(-c3nccc(N4CCCC(c5ncco5)C4)n3)cnc2cn1` (stereo not drawn) [IV-686, 2-(1-(2-(6-(Trifluoromethyl)imidazo[1,2-a]pyrazin-3-yl)pyrimidin-4-yl)piperidin-3-yl)oxazole], the 50% inhibitory concentration (IC50) in assay [1] is 0.5 to 5 µM. For the same molecule, the Ki at GCN2 kinase was in the range of 100 to 1000 nM.

Turning to `CC1CN(c2ccnc(-c3cnc4cnc(C(F)(F)F)cn34)n2)C(C)C(c2cnn(C)c2)N1` (stereo not drawn) [IV-687, 3-(4-(2,5-Dimethyl-3-(1-methyl-1H-pyrazol-4-yl)piperazin-1-yl)pyrimidin-2-yl)-6-(trifluoromethyl)imidazo[1,2-a]pyrazine], the 50% inhibitory concentration (IC50) in assay [1] fell in the range of 0.5 to 5 µM. The molecule also showed a Ki at GCN2 kinase of 100 to 1000 nM.

With `CC1C(c2cn[nH]c2)CCN1c1ccnc(-c2cnc3cnc(C(F)(F)F)cn23)n1` (stereo not drawn) [IV-688, 3-(4-(2-Methyl-3-(1H-pyrazol-4-yl)pyrrolidin-1-yl)pyrimidin-2-yl)-6-(trifluoromethyl)imidazo[1,2-a]pyrazine], the half-maximal inhibitory concentration (IC50) in assay [1] lay in the range of 0.5 to 5 µM. The Ki on GCN2 kinase fell in the range of 10 to 100 nM.

In turn, `CC1C(c2cn[nH]c2)CCN1c1ccnc(-c2cnc3cnc(C(F)(F)F)cn23)n1` (stereo not drawn) [IV-689, 3-(4-(2-Methyl-3-(1H-pyrazol-4-yl)pyrrolidin-1-yl)pyrimidin-2-yl)-6-(trifluoromethyl)imidazo[1,2-a]pyrazine] had an IC50 in assay [1] of over 5 µM. This molecule also gave a Ki at GCN2 kinase of 10 to 100 nM.

`CC1CN(c2cc(F)cc(-c3cnc4cnc(C(F)(F)F)cn34)n2)C(C)C(c2cn[nH]c2)N1` (stereo not drawn) [IV-690, 3-(6-(2,5-Dimethyl-3-(1H-pyrazol-4-yl)piperazin-1-yl)-4-fluoropyridin-2-yl)-6-(trifluoromethyl)imidazo[1,2-a]pyrazine] showed an IC50 in assay [1] of 0.5 to 5 µM. The molecule also showed a Ki on GCN2 kinase of under 10 nM.

Take `FC(F)(F)c1cn2c(-c3nccc(N4CCCC(c5cncs5)C4)n3)cnc2cn1` (stereo not drawn) [IV-691, 5-(1-(2-(6-(Trifluoromethyl)imidazo[1,2-a]pyrazin-3-yl)pyrimidin-4-yl)piperidin-3-yl)thiazole]: in assay [1], the 50% inhibitory concentration (IC50) was in the range of 0.5 to 5 µM. Further, the Ki on GCN2 kinase was 10 to 100 nM.

`FC(F)(F)c1cn2c(-c3nccc(N4CCC5(CC4)CNC5)n3)cnc2cn1` [IV-692, 3-(4-(2,7-Diazaspiro[3.5]nonan-7-yl)pyrimidin-2-yl)-6-(trifluoromethyl)imidazo[1,2-a]pyrazine] came in with an IC50 in assay [1] of over 5 µM. At GCN2 kinase, this molecule had a Ki of 100 to 1000 nM.

The molecule `CC1C(c2cn[nH]c2)CC(P(C)(C)=O)CN1c1ccnc(-c2cnc3cnc(C(F)(F)F)cn23)n1` (stereo not drawn) [IV-693, Dimethyl(6-methyl-5-(1H-pyrazol-4-yl)-1-(2-(6-(trifluoromethyl)imidazo[1,2-a]pyrazin-3-yl)pyrimidin-4-yl)piperidin-3-yl)phosphine oxide] yielded a half-maximal inhibitory concentration (IC50) in assay [1] of over 5 µM. The molecule also yielded a Ki on GCN2 kinase of 10 to 100 nM.

`FC(F)(F)c1cn2c(-c3nccc(N4CCCC(c5cocn5)C4)n3)cnc2cn1` (stereo not drawn) [IV-694, 4-(1-(2-(6-(Trifluoromethyl)imidazo[1,2-a]pyrazin-3-yl)pyrimidin-4-yl)piperidin-3-yl)oxazole] returned a half-inhibitory concentration (IC50) in assay [1] of over 5 µM. This molecule gave a Ki on GCN2 kinase of 100 to 1000 nM.

For `FC(F)(F)c1cn2c(-c3nccc(N4CCC(Oc5cn[nH]c5)C4)n3)cnc2cn1` (stereo not drawn) [IV-695, 3-(4-(3-((1H-Pyrazol-4-yl)oxy)pyrrolidin-1-yl)pyrimidin-2-yl)-6-(trifluoromethyl)imidazo[1,2-a]pyrazine], the IC50 in assay [1] was over 5 µM. This molecule also yielded a Ki on GCN2 kinase of 10 to 100 nM.

In turn, `FC(F)(F)c1cn2c(-c3nccc(N4CCCC(C5CNC5)C4)n3)cnc2cn1` (stereo not drawn) [IV-696, 3-(4-(3-(Azetidin-3-yl)piperidin-1-yl)pyrimidin-2-yl)-6-(trifluoromethyl)imidazo[1,2-a]pyrazine] showed an IC50 in assay [1] of over 5 µM. This molecule gave a Ki on GCN2 kinase of 100 to 1000 nM.

`FC(F)c1cn2c(-c3nsc(N4CCOC(c5cn[nH]c5)C4)n3)cnc2cn1` (stereo not drawn) [IV-702, 4-(3-(6-(difluoromethyl)imidazo[1,2-a]pyrazin-3-yl)-1,2,4-thiadiazol-5-yl)-2-(1H-pyrazol-4-yl)morpholine] came in with an IC50 in assay [1] of over 5 µM. At GCN2 kinase, this molecule yielded a Ki of 100 to 1000 nM.

The molecule `CS(=O)(=O)NC[C@@H]1CN(c2nc(-c3cnc4cnc(C(F)F)cn34)ns2)CCO1` [IV-703, (S)—N-((4-(3-(6-(difluoromethyl)imidazo[1,2-a]pyrazin-3-yl)-1,2,4-thiadiazol-5-yl)morpholin-2-yl)methyl)methanesulfonamide] had an IC50 in assay [1] of over 5 µM. This molecule also displayed a Ki on GCN2 kinase of 100 to 1000 nM.

Consider `FC(F)(F)c1cn2c(-c3nsc(N4CCOC(c5cn[nH]c5)C4)n3)cnc2cn1` (stereo not drawn) [IV-704, 2-(1H-pyrazol-4-yl)-4-(3-(6-(trifluoromethyl)imidazo[1,2-a]pyrazin-3-yl)-1,2,4-thiadiazol-5-yl)morpholine], for which, in assay [1], the half-maximal inhibitory concentration (IC50) was over 5 µM. Moreover, at GCN2 kinase, the Ki lay in the range of 100 to 1000 nM.

In assay [1], `CS(=O)(=O)NC[C@@H]1CN(c2nc(-c3cnc4cnc(C(F)(F)F)cn34)ns2)CCO1` [IV-705, (S)—N-((4-(3-(6-(trifluoromethyl)imidazo[1,2-a]pyrazin-3-yl)-1,2,4-thiadiazol-5-yl)morpholin-2-yl)methyl)methanesulfonamide] displayed a 50% inhibitory concentration (IC50) of over 5 µM. Further, the Ki at GCN2 kinase is 100 to 1000 nM.

Consider `Cc1noc([C@@H]2CN(c3ccnc(-c4cnc5cnc(C(F)(F)F)cn45)n3)C[C@H](C)O2)n1` [IV-712], for which the concentration for half-maximal inhibition (IC50) in assay [1] is over 5 µM. This molecule also came in with a Ki on GCN2 kinase of 100 to 1000 nM.

In the case of `Cc1nnc([C@@H]2CN(c3ccnc(-c4cnc5cnc(C(F)(F)F)cn45)n3)C[C@H](C)O2)o1` [IV-716], in assay [1], the IC50 is over 5 µM. The Ki at GCN2 kinase fell in the range of 100 to 1000 nM.

`FC(F)(F)c1cn2c(-c3nccc(N4CCOC(c5ccncc5)C4)n3)cnc2cn1` (stereo not drawn) [IV-724]: the IC50 in assay [1] was over 5 µM. The molecule further had a Ki at GCN2 kinase of over 1000 nM.

As to `O=C(N[C@H]1CCCN(c2ccnc(-c3cnc4cnc(C(F)(F)F)cn34)n2)C1)c1cn[nH]c1` [IV-733], the 50% inhibitory concentration (IC50) in assay [1] is over 5 µM. In addition, at GCN2 kinase, the Ki was over 1000 nM.

On to `N#Cc1cccc(C(=O)N[C@H]2CCCN(c3ccnc(-c4cnc5cnc(C(F)(F)F)cn45)n3)C2)c1` [IV-741], for which the IC50 in assay [1] was over 5 µM. Also, the Ki on GCN2 kinase is over 1000 nM.

In turn, `N#Cc1ccc(C(=O)N[C@H]2CCCN(c3ccnc(-c4cnc5cnc(C(F)(F)F)cn45)n3)C2)cc1` [IV-743] had an IC50 in assay [1] of over 5 µM. Further, the Ki on GCN2 kinase was over 1000 nM.

`C[C@H]1C[C@H](c2c[nH]nc2F)CN(c2nccc(-c3cnc4cnc(C(F)(F)F)cn34)n2)C1` [IV-754, 3-(2-((3R,5S)-3-(3-fluoro-1H-pyrazol-4-yl)-5-methylpiperidin-1-yl)pyrimidin-4-yl)-6-(trifluoromethyl)imidazo[1,2-a]pyrazine]: the IC50 in assay [1] was under 0.5 µM; on GCN2 kinase, 10 to 1000 nM.

As for `C[C@@H]1C[C@H](c2c[nH]nc2F)CN(c2nccc(-c3cnc4cnc(C(F)(F)F)cn34)n2)C1` [IV-757, 3-(2-((3R,5R)-3-(3-fluoro-1H-pyrazol-4-yl)-5-methylpiperidin-1-yl)pyrimidin-4-yl)-6-(trifluoromethyl)imidazo[1,2-a]pyrazine], the 50% inhibitory concentration (IC50) in assay [1] is under 0.5 µM; against GCN2 kinase, 10 to 1000 nM.
